The results in this text go back to US20240384268A1, “Oligonucleotides” (Hudson Institute of Medical Research, priority 2021, published 2024).

In the oligonucleotide strings, read from the 5' end, every base follows the letter of its sugar. An asterisk marks phosphorothioate; unmarked linkages are phosphodiester. Other units and linkages are bracketed, terminal groups are in braces. A string of capitals states the bases alone. d = 2'-deoxy (DNA); m = 2'-O-methyl

Holding throughout (type): cell-based
One series deals with T1, human TLR7 (Homo sapiens, UniProt Q9NYK1).
T1 construct: HA; host or cells: 293XL-hTLR7-HA (HEK293)
T1 sequence (Q9NYK1 27-1049): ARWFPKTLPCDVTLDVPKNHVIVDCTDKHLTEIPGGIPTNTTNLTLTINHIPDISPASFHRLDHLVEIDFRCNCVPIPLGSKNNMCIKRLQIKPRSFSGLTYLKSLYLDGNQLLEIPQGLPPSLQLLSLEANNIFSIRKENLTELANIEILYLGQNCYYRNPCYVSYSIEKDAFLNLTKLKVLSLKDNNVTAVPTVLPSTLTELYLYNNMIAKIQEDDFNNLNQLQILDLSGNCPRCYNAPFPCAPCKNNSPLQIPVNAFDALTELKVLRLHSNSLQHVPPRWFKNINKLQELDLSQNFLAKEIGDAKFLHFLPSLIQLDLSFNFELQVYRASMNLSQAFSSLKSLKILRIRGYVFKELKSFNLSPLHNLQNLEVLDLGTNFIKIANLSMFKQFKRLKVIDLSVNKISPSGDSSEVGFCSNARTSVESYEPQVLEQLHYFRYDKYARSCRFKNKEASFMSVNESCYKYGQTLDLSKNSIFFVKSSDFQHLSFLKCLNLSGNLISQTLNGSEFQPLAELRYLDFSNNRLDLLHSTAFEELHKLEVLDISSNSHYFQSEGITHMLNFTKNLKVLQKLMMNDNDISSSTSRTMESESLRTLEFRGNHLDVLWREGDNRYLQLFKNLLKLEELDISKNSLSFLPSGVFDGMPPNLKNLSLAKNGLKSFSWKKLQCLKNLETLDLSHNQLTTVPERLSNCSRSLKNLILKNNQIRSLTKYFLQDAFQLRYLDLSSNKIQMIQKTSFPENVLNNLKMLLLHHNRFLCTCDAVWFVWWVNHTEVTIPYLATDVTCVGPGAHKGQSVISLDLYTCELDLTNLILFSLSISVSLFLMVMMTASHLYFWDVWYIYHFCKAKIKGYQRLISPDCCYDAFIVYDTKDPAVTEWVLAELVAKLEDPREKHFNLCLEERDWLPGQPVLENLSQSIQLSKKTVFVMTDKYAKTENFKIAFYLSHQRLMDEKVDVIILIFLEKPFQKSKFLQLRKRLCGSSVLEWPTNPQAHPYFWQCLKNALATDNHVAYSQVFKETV
In words: HEK-TLR7 NF-κB-luciferase reporter, R848 stimulation. As to conditions: HEK-TLR7; 2 μM 3-mer DNA on a PS backbone; R848. Here is the method:
In such examples, inhibition of TLR7 activity can be identified by observation of an overall decreased TLR7 response of the cell population, or a lower proportion of cells having TLR7-positive activity as compared to positive control condition in which cells are treated with TLR7 agonist in the absence of the oligonucleotide (or in the presence of an appropriate control inhibitory agent). In one example, 293XLhTLR7 (referred to as HEK-TLR7) cells are transfected with pNF-κB-Luc4 reporter, incubated with an oligonucleotide, and then stimulated with R848. TLR7 activity can be determined by a luciferase assay, which measures activated NF-κB by luminescence. TLR7 activity can also be analysed by measuring cytokine levels, for example by ELISA. […] TLR7 activity may then be assessed by the gene or protein expression of TLR7-responsive genes, such as Tnfα and Oas3.
(§1) For cGAS stimulations, cells were treated for indicated duration with ASOs, prior to transfection with ISD70 (human cells) or ISD45 (mouse cells) (the ASOs were not washed off prior to ISD transfection unless otherwise indicated). The cGAS ligands ISD45 (Stetson and Medzhitov, 2006) and ISD70 (also known as VACV-70 (Unterholzner et al., 2010)) (Table 1) were resuspended as follows: 5 1d of sense and 5 μl of antisense strands at 10 μg/μl were added to 90 μl PBS under sterile conditions, heated at 75° C. for 30 min, prior to letting cool down at room temperature and aliquoting (stock at 1 μg/1 l). The ISDs were transfected at a concentration of […] at a ratio of 1 μg:1 μl with Lipofectamine 2000 in Opti-MEM (Thermo Fisher Scientific). HEK-TLR3, HEK-TLR7 and […] were treated with indicated concentration of ASOs for 20-50 min, prior to stimulation with poly(I:C) (Invivogen), R848 (Invivogen), Motolimod (MedChemExpress) and the Class B CpG oligonucleotides ODN 2006 (synthesised by IDT and resuspended in RNase-free TE buffer [Table 1]), respectively. The TLR2/1 agonist PAM3CSK4 (Invivogen), the TLR4 agonist lipopolysaccharide (Invivogen), the Class B CpG oligonucleotides ODN 1826 (synthesised by IDT and resuspended in RNase-free TE buffer), the mouse Sting agonist DMXAA (Cayman) and the human STING agonist (compound #3 from (Raanjulu et al., 2018), referred to as GSK herein—kind gift from Cancer Therapeutics CRC, Australia) were used at indicated concentrations. Aspirin (Sigma—A2093) was resuspended in pure medium to 10 mM, filter sterilised and added to the cells at 2 mM final. All ASOs were synthesised by Integrated DNA Technologies (IDT), and resuspended in RNase-free TE buffer, pH 8.0 (Thermo Fisher Scientific). Cell viability was assessed by adding 1× fresh resazurin solution to the wells (10λ solution made up with 7 mg resazurin [Sigma—R7017] dissolved in 3.5 ml PBS, sterile filtered at […]) for 4 h, prior to reading at with a Fluostar OPTIMA (BMG LABTECH) plate-reader (fluorescence: Excitation 535 nm, Emission 590); wells with medium only and 1× resazurin were used as blanks.
Following transfection, the cells were collected from the 6-wells and aliquoted into 96-wells, just before ASO and overnight TLR stimulation (as above described). Similarly, the LL171 cells expressing and ISRE-Luc reporter were treated overnight.
(In general: Reporter assays use an easily measured gene product as a stand-in for the process of interest.)

For another series, the target named is T2, TLR3 (Homo sapiens, UniProt O15455).
T2 sequence (O15455 24-904): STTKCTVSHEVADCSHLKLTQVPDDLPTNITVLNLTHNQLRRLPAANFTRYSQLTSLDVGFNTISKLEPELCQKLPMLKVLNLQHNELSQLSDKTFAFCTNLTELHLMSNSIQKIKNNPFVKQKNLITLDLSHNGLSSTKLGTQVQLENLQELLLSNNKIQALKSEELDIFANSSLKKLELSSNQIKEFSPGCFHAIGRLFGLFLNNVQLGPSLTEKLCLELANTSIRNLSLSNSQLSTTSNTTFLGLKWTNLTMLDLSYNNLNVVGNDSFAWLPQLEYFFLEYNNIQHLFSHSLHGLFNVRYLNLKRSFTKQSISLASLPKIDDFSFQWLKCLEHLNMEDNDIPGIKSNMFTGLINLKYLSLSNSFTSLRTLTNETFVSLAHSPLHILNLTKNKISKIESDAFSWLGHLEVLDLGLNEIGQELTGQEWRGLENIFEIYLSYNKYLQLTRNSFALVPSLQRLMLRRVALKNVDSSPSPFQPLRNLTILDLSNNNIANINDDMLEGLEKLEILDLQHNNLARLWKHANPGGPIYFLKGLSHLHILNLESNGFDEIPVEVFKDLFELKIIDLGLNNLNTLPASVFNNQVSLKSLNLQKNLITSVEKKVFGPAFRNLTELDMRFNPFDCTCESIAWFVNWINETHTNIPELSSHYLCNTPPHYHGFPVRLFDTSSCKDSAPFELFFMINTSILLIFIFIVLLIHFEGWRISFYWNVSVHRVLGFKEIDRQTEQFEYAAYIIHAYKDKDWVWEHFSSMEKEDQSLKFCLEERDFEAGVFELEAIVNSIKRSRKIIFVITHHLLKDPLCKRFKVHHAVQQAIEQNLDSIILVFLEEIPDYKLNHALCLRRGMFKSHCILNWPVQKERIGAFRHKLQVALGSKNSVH
In words: HEK-TLR3 NF-κB-luciferase reporter, poly(I:C) stimulation. Also on record: host or cells: HEK-Blue hTLR3 (HEK293). As to conditions: for TLR3 2uM: 3-mers DNA PS 45 min, then 500 ng/ml polyI:C overnight, NF-κB-luciferase normalised to polyI:C only (Ligand 1.000, NT 0.000).

For the next series, the target named is cGAS (Homo sapiens, UniProt Q8N884). In words: ISD70-driven IP-10 production in HT-29 cells, ELISA. On the set-up: endogenous in cells. As to conditions: ASO overnight at 125 nM (62.5-125 nM), ISD70 24 h. Here is the method:
In such examples, inhibition of cGAS activity can be identified by observation of an overall decreased cGAS response of the cell population, or a lower proportion of cells having cGAS-positive activity as compared to positive control condition in which cells are treated with cGAS agonist in the absence of the oligonucleotide (or in the presence of an appropriate control inhibitory agent). In one example, THP-1 or HT-29 cells are transfected with ISD70 and incubated with an oligonucleotide. cGAS activity can then be determined by cytokine (e.g., IP-10 and/or IFNβ) expression (e.g., gene and/or protein expression) and/or secretion levels, such as by ELISA. A similar assay can be performed with LL171 cells transfected with ISD45. […] By way of example, cGAS enzymatic activity may be assessed in vitro using recombinant cGAS and then measuring activity thereof by way of a cGAMP ELISA.
as §1
Human IP-10 and IFN-β levels were measured using supernatants from the different cultures and were quantified using IP-10 (BD Biosciences, #550926) or IFN-β (PBL assay science, #41415-1) ELISA kits respectively, according to the manufacturers' protocol. Tetramethylbenzidine substrate (Thermo Fisher Scientific) was used for quantification of the cytokines on a Fluostar OPTIMA (BMG LABTECH) plate-reader.

The next series deals with T3, human TLR9 (Homo sapiens, UniProt Q9NR96).
T3 construct: HA; host or cells: 293XL-hTLR9-HA (HEK293)
T3 sequence (Q9NR96 26-1032): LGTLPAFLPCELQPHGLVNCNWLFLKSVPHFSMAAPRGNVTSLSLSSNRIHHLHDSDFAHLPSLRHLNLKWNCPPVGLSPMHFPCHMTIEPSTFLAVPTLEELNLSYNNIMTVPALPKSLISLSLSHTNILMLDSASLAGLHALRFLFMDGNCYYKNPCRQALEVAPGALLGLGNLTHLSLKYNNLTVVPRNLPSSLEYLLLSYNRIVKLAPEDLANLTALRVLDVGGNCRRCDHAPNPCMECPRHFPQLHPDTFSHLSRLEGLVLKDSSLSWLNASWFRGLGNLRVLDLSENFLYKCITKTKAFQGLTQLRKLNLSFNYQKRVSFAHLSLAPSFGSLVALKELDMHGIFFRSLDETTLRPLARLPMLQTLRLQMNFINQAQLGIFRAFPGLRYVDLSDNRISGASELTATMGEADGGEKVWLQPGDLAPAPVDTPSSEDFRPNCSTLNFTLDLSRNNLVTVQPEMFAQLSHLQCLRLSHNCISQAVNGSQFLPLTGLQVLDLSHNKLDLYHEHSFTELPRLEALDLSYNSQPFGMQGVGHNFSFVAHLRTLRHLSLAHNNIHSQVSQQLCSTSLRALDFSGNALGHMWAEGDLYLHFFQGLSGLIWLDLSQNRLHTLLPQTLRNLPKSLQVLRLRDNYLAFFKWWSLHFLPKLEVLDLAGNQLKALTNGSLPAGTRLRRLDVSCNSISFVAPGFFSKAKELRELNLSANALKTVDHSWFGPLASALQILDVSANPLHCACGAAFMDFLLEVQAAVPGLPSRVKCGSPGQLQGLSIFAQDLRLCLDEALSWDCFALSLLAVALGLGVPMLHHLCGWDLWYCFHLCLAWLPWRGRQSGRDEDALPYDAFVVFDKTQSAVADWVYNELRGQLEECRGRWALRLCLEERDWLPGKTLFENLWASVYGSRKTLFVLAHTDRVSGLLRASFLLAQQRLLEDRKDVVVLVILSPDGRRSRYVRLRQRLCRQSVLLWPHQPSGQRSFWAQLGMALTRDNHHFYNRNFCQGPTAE
The series is described as follows: HEK-TLR9 NF-κB-luciferase reporter, ODN2006 stimulation. Conditions: HEK-TLR9; 500 nM 2′OMe or PS oligos; 200 nM ODN2006. The protocol: In such examples, inhibition of TLR9 activity can be identified by observation of an overall decreased TLR9 response of the cell population, or a lower proportion of cells having TLR9-positive activity as compared to positive control condition in which cells are treated with TLR9 agonist in the absence of the oligonucleotide (or in the presence of an appropriate control inhibitory agent). In one example, HEK cells are transfected with TLR9 and a NF-κB reporter and incubated with an oligonucleotide and then stimulated with a TLR9 agonist. TLR9 activity can then be determined by a luciferase assay. TLR9 activity can also be analysed by measuring cytokine levels (e.g., IFN, IL-6, TNF and IL-12), for example by ELISA.
as §1
Following transfection, the cells were collected from the 6-wells and aliquoted into 96-wells, just before ASO and overnight TLR stimulation (as above described). Similarly, the LL171 cells expressing and ISRE-Luc reporter were treated overnight. The next day, the cells were lysed in 40 μl (for a 96-well plate) of 1× Glo Lysis buffer (Promega) for 10 min at room temperature. […] was then subjected to firefly luciferase assay using 40 μl of Luciferase Assay Reagent (Promega). Luminescence was quantified with a Fluostar OPTIMA (BMG LABTECH) luminometer.

cGAS, sequence (Q8N884 whole entry): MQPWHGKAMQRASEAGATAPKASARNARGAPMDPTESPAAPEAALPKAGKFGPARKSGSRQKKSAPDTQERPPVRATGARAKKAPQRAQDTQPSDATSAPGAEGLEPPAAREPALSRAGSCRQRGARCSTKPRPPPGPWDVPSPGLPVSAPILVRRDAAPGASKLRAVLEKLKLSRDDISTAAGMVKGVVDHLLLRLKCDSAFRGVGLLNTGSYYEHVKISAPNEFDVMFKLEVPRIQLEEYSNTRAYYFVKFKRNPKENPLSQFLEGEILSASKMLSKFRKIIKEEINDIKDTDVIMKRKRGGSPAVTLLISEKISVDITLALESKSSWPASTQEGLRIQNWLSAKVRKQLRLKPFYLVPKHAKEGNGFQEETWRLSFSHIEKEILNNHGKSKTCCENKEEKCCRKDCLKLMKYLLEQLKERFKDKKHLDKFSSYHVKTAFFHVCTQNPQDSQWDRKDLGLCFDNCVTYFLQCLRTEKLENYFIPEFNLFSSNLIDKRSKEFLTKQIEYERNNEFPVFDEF

For the substance dT*dC*dT [TCT], the “inhibition of TLR7 by 3-mer DNA PS oligos” value in the series with human TLR7 was “two most potent DNA 3-mers inhibiting TLR7”. In addition, the “TLR3 2uM” value with TLR3 is 1.230.
For “mU*mC*mC*mG*mG*C*C*T*C*G*G*A*G*T*C*mU*mC*mC*mA*mU (mU*mC*mC*mG*mG*dC*dC*dT*dC*dG*dG*dA*dG*dT*dC*mU*mC*mC*mA*mU; antisense) [ASO2up]”, in the series with cGAS, the “effect on ISD70-induced IP-10 production at low dose (in words)” value is “more potent inhibitor of ISD70-driven IP-10 production than ASO2”.
As for “mG*mG*mU*mC*mU*T*G*G*C*T*T*C*G*T*G*mG*mA*mG*mC*mA (mG*mG*mU*mC*mU*dT*dG*dG*dC*dT*dT*dC*dG*dT*dG*mG*mA*mG*mC*mA; antisense) [ASO5]”, the “inhibition of TLR9 sensing of ODN2006 (in words)” value with human TLR9 was “significantly inhibited TLR9 sensing of ODN2006”. Further, the “inhibition of polyI:C sensing by TLR3 at 100 nM (in words)” value in the series with TLR3 (100 nM ASOs/ODNs, poly(I:C) 0.5 μg/ml) is given as “retained significant inhibition of polyL:C sensing”.
Turning to dT*dT*dT [TTT], the “inhibition of TLR7 by 3-mer DNA PS oligos” value in the series with human TLR7 is “two most potent DNA 3-mers inhibiting TLR7”. Further, the “TLR3 2uM” value with TLR3 is recorded as 1.139.
